Measured values from patent US20100137313A1 (ASTRAZENECA AB, priority 2008, published 2010).

Target: S. pneumoniae Topoisomerase IV ATPase (ParE) (Streptococcus pneumoniae serotype 4, UniProt Q59961)
Experiment: S. pneumoniae Topoisomerase IV ATPase inhibition
Type: biochemical
Conditions: values marked * are an average of two or more data points; for inhibition at 13 µM: read-out: % Inh (13 μM) of S. pneumoniae Topoisomerase IV ATPase
Method in brief: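 S. pneumoniae ParE (1.25 nM) ATPase with 160 μM ATP and 5 μg/ml sheared DNA in pH 8.0 Tris, Mg2+, DTT, Brij-35; phosphate detected by malachite green/molybdate at 650 nm. Normalised to 2% DMSO (0%) and 20 μM EDTA (100%); IC50 from 10 concentrations.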

S. pneumoniae Topoisomerase IV ATPase (ParE), sequence (Q59961 whole entry): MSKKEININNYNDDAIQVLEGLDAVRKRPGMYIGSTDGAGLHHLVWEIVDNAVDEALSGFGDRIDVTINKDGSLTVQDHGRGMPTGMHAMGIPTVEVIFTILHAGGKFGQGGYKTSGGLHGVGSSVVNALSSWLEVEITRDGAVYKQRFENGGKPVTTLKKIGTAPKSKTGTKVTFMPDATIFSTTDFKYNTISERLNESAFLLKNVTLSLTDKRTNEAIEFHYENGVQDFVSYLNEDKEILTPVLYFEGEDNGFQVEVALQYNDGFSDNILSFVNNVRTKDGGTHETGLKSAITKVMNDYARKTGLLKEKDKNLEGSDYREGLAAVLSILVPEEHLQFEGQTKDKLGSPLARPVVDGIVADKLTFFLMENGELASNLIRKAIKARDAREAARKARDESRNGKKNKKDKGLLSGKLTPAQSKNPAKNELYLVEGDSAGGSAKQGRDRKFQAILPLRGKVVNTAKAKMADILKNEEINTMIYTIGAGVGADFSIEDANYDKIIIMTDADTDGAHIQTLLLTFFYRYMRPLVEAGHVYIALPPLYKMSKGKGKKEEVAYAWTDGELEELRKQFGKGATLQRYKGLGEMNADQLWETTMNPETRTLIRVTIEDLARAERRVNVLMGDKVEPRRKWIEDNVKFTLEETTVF

Row | Structure (SMILES) | inhibition at 13 µM [%] | % Inh (13 μM) of S. pneumoniae Topoisomerase IV ATPase [%]
1 | CC1(C)[C@@H](C(=O)O)[C@@H]1c1cccc(-c2cnc(Nc3ccc(F)c(Cl)c3)nc2-n2ccc(C(F)(F)F)n2)c1 [Example 572, (1,3-trans)-3-(3-(2-(3-chloro-4-fluorophenylamino)-4-(3-(trifluoromethyl)-1H-pyrazol-1-yl)pyrimidin-5-yl)phenyl)-2,2-dimethylcyclopropanecarboxylic acid] | 100 | –
2 | O=C(O)[C@@H]1C[C@H]1c1cncc(-c2cnc(Nc3ccc(F)c(Cl)c3)nc2-n2ccc(C(F)(F)F)n2)c1 [Example 573, (1,2-trans)-2-(5-(2-(3-chloro-4-fluorophenvlamino)-4-(3-(trifluoromethyl)-1H-pyrazol-1-yl)pyrimidin-5-yl)pyridin-3-yl)cyclopropanecarboxylic acid] | 100 | –
3 | O=C(O)[C@@H]1C[C@H]1c1cccc(-c2cnc(Nc3ccc(F)c(Cl)c3)nc2-n2ccc(C(F)(F)F)n2)c1 [Example 575, (1R,2R)-2-(3-(2-(3-chloro-4-fluorophenvlamino)-4-(3-(trifluoromethyl)-1H-pyrazol-1-yl)pyrimidin-5-yl)phenyl)cyclopropanecarboxylic acid] | – | 100
4 | O=C(O)[C@H]1C[C@H]1c1cccc(-c2cnc(Nc3ccc(F)c(Cl)c3)nc2-n2ccc(C(F)(F)F)n2)c1 [Example 576, (1S,2R)-2-(3-(2-(3-chloro-4-fluorophenvlamino)-4-(3-(trifluoromethyl)-1H-pyrazol-1-yl)pyrimidin-5-yl)phenyl)cyclopropanecarboxylic acid] | – | 100
5 | COc1cc(Nc2ncc(-c3cnc(NCCS(C)(=O)=O)c(C(=O)O)c3)c(-n3ccc(C(F)(F)F)n3)n2)cc(OC)c1 [Example 585, 5-(2-(3,5-dimethoxyphenylamino)-4-(3-(trifluoromethyl)-1H-pyrazol-1-yl)pyrimidin-5-yl)-2-(2-(methylsulfonyl)ethylamino)nicotinic acid] | 100 | –
6 | CNc1ncc(-c2cnc(Nc3cc(OC)cc(OC)c3)nc2-n2ccc(C(F)(F)F)n2)cc1C(=O)O [Example 586, 5-(2-(3,5-dimethoxyphenylamino)-4-(3-(trifluoromethyl)-1H-pyrazol-1-yl)pyrimidin-5-yl)-2-(methylamino)nicotinic acid] | 100 | –
7 | COc1cc(Nc2ncc(-c3cnc(N(C)C)c(C(=O)O)c3)c(-n3ccc(C(F)(F)F)n3)n2)cc(OC)c1 [Example 587, 5-(2-(3,5-dimethoxyphenylamino)-4-(3-(trifluoromethyl)-1H-pyrazol-1-yl)pyrimidin-5-yl)-2-(dimethylamino)nicotinic acid] | 100 | –
8 | COc1cc(Nc2ncc(-c3cnc(-n4cncn4)c(C(=O)O)c3)c(-n3ccc(C(F)(F)F)n3)n2)cc(OC)c1 [Example 588, 5-(2-(3,5-dimethoxyphenylamino)-4-(3-(trifluoromethyl)-1H-pyrazol-1-yl)pyrimidin-5-yl)-2-(1H-1,2,4-triazol-1-yl)nicotinic acid] | 100 | –
9 | COc1cc(Nc2ncc(-c3cnc(-n4cccn4)c(C(=O)O)c3)c(-n3ccc(C(F)(F)F)n3)n2)cc(OC)c1 [Example 589, 5-(2-(3,5-dimethoxyphenylamino)-4-(3-(trifluoromethyl)-1H-pyrazol-1-yl)pyrimidin-5-yl)-2-(1H-pyrazol-1-yl)nicotinic acid] | 100 | –
10 | COc1cc(Nc2ncc(-c3cnc(-n4ccnc4)c(C(=O)O)c3)c(-n3ccc(C(F)(F)F)n3)n2)cc(OC)c1 [Example 590, 5-(2-(3,5-dimethoxyphenylamino)-4-(3-(trifluoromethyl)-1H-pyrazol-1-yl)pyrimidin-5-yl)-2-(1H-imidazol-1-yl)nicotinic acid] | 100 | –
11 | CNc1ncc(-c2cnc(Nc3cc(OC)cc(OC)c3)nc2-n2nc(C(F)(F)F)cc2C)cc1C(=O)O [Example 591, 5-(2-(3,5-dimethoxyphenylamino)-4-(5-methyl-3-(trifluoromethyl)-1H-pyrazol-1-yl)pyrimidin-5-yl)-2-(methylamino)nicotinic acid] | 100 | –
12 | COc1cc(Nc2ncc(-c3cc(C(=O)O)cn(C)c3=O)c(-n3ccc(C(F)(F)F)n3)n2)cc(OC)c1 [Example 592, 5-(2-(3,5-dimethoxyphenylamino)-4-(3-(trifluoromethyl)-1H-pyrazol-1-yl)pyrimidin-5-yl)-1-methyl-6-oxo-1,6-dihydropyridine-3-carboxylic acid] | 100 | –
13 | CN(CC(=O)O)c1cccc(-c2cnc(Nc3ccc(F)c(Cl)c3)nc2-n2ccc(C(F)(F)F)n2)c1 [Example 598, N-(3-{2-[(3-chloro-4-fluorophenyl)amino]-4-[3-(trifluoromethyl)-1H-pyrazol-1-yl]pyrimidin-5-yl}phenyl)-N-methylglycine] | 82 | –
14 | O=C(O)[C@@H]1CCCN1c1cccc(-c2cnc(Nc3ccc(F)c(Cl)c3)nc2-n2ccc(C(F)(F)F)n2)c1 [Example 599, 1-(3-{2-[(3-chloro-4-fluorophenyl)amino]-4-[3-(trifluoromethyl)-1H-pyrazol-1-yl]pyrimidin-5-yl}phenyl)-L-proline] | 94 | –
15 | O=C(O)[C@H]1CCCN1c1cccc(-c2cnc(Nc3ccc(F)c(Cl)c3)nc2-n2ccc(C(F)(F)F)n2)c1 [Example 600, 1-(3-{2-[(3-chloro-4-fluorophenyl)amino]-4-[3-(trifluoromethyl)-1H-pyrazol-1-yl]pyrimidin-5-yl}phenyl)-D-proline] | 100 | –
16 | O=C(O)C1CCCN(c2cccc(-c3cnc(Nc4ccc(F)c(Cl)c4)nc3-n3ccc(C(F)(F)F)n3)c2)C1 (centres unmarked) [Example 601, 1-(3-{2-[(3-chloro-4-fluorophenyl)amino]-4-[3-(trifluoromethyl)-1H-pyrazol-1-yl]pyrimidin-5-yl}phenyl)piperidine-3-carboxylic acid] | 100 | –
17 | O=C(O)C1CCCCN1c1cccc(-c2cnc(Nc3ccc(F)c(Cl)c3)nc2-n2ccc(C(F)(F)F)n2)c1 (centres unmarked) [Example 602, 1-(3-{2-[(3-chloro-4-fluorophenyl)amino]-4-[3-(trifluoromethyl)-1H-pyrazol-1-yl]pyrimidin-5-yl}phenyl)piperidine-2-carboxylic acid] | 100 | –
18 | O=C(O)C1CCN(c2cccc(-c3cnc(Nc4ccc(F)c(Cl)c4)nc3-n3ccc(C(F)(F)F)n3)c2)C1 (centres unmarked) [Example 604, 1-(3-{2-[(3-chloro-4-fluorophenyl)amino]-4-[3-(trifluoromethyl)-1H-pyrazol-1-yl]pyrimidin-5-yl}phenyl)pyrrolidine-3-carboxylic acid] | 100 | –
19 | COc1cc(Nc2ncc(-c3cccc(/C=C/C(=O)O)c3)c(-n3ccc(C(F)(F)F)n3)n2)cc(OC)c1 [Example 615, (2E)-3-(3-{2-[(3,5-dimethoxyphenyl)amino]-4-[3-(trifluoromethyl)-1H-pyrazol-1-yl]pyrimidin-5-yl}phenyl)prop-2-enoic acid] | 100 | –
20 | COc1cc(Nc2ncc(-c3cccc(/C=C/C(=O)O)c3)c(-n3nc(C(F)(F)F)cc3C)n2)cc(OC)c1 [Example 616, (2E)-3-(3-{2-[(3,5-dimethoxyphenyl)amino]-4-[5-methyl-3-(trifluoromethyl)-1H-pyrazol-1-yl]pyrimidin-5-yl}phenyl)prop-2-enoic acid] | 99 | –
